“And” between values parts separate entries of the source, which are not always exact repeats. Identical values can stand only once. Inconclusive results and toxic doses are left out.
System: CD2F1 mice, L1210 leukemia ip, survival T/C
Experiment: NCI In Vivo Anticancer Drug Screen. Data for tumor model L1210 Leukemia (intraperitoneal) in CD2F1 (CDF1) mice
Conditions: higher = longer survival
Outline: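 Compound-dosed mice with transplantable tumor versus matched vehicle controls; endpoint ratio T/C reported.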

[1] = endpoint: mean survival time, dose: 100.0 mg/kg/injection, schedule: Q04DX003 (ip), vehicle: saline with Tween-80
[2] = endpoint: mean survival time, dose: 200.0 mg/kg/injection, schedule: Q04DX003 (ip), vehicle: saline with Tween-80
[3] = endpoint: mean survival time, dose: 400.0 mg/kg/injection, schedule: Q04DX003 (ip), vehicle: saline with Tween-80
[4] = endpoint: mean survival time, dose: 100.0 mg/kg/injection, schedule: Q04DX002 (ip), vehicle: saline with Tween-80
[5] = endpoint: mean survival time, dose: 100.0 mg/kg/injection, schedule: Q01DX001 (ip), vehicle: saline with Tween-80
[6] = endpoint: mean survival time, dose: 200.0 mg/kg/injection, schedule: Q01DX001 (ip), vehicle: saline with Tween-80
[7] = endpoint: mean survival time, dose: 400.0 mg/kg/injection, schedule: Q01DX001 (ip), vehicle: saline with Tween-80
[8] = endpoint: mean survival time, dose: 100.0 mg/kg/injection, schedule: Q01DX009 (ip), vehicle: saline with Tween-80
[9] = endpoint: mean survival time, dose: 200.0 mg/kg/injection, schedule: Q01DX009 (ip), vehicle: saline with Tween-80
[10] = endpoint: mean survival time, dose: 400.0 mg/kg/injection, schedule: Q01DX009 (ip), vehicle: saline with Tween-80
[11] = endpoint: mean survival time, dose: 100.0 mg/kg/injection, schedule: Q01DX009 (ip), vehicle: saline
[12] = endpoint: mean survival time, dose: 200.0 mg/kg/injection, schedule: Q01DX009 (ip), vehicle: saline
[13] = endpoint: mean survival time, dose: 400.0 mg/kg/injection, schedule: Q01DX009 (ip), vehicle: saline
[14] = endpoint: mean survival time, dose: 50.0 mg/kg/injection, schedule: Q01DX009 (ip), vehicle: saline with Tween-80

`CN(C)N=Nc1cc(C#N)cc(C#N)c1` was tested, and the T/C (endpoint: mean survival time, dose: 79.0 mg/kg/injection, schedule: Q01DX009 (ip), vehicle: Klucel (hydroxypropylcellulose) (HPC)) was 110 % of control, the T/C (endpoint: mean survival time, dose: 118.0 mg/kg/injection, schedule: Q01DX009 (ip), vehicle: Klucel (hydroxypropylcellulose) (HPC)) was 110 % of control and the T/C (endpoint: mean survival time, dose: 177.0 mg/kg/injection, schedule: Q01DX009 (ip), vehicle: Klucel (hydroxypropylcellulose) (HPC)) was 119 % of control. The T/C (endpoint: mean survival time, dose: 266.0 mg/kg/injection, schedule: Q01DX009 (ip), vehicle: Klucel (hydroxypropylcellulose) (HPC)) was 113 % of control and the T/C (endpoint: mean survival time, dose: 400.0 mg/kg/injection, schedule: Q01DX009 (ip), vehicle: Klucel (hydroxypropylcellulose) (HPC)) was 89 % of control.

`Cn1cnc([N+](=O)[O-])c1Sc1nc(N)nc2nc[nH]c12` was tested, and the T/C (endpoint: mean survival time, dose: 5.0 mg/kg/injection, schedule: Q03DX003 (ip), vehicle: Klucel (hydroxypropylcellulose) (HPC)) was 153 % of control, the T/C (endpoint: mean survival time, dose: 10.0 mg/kg/injection, schedule: Q01DX007 (ip), vehicle: Klucel (hydroxypropylcellulose) (HPC)) was 122 % of control and the T/C (endpoint: mean survival time, dose: 10.0 mg/kg/injection, schedule: Q03DX003 (ip), vehicle: Klucel (hydroxypropylcellulose) (HPC)) was 160 % of control. For the same molecule, the T/C (endpoint: mean survival time, dose: 20.0 mg/kg/injection, schedule: Q01DX007 (ip), vehicle: Klucel (hydroxypropylcellulose) (HPC)) was 117 % of control and the T/C (endpoint: mean survival time, dose: 20.0 mg/kg/injection, schedule: Q03DX003 (ip), vehicle: Klucel (hydroxypropylcellulose) (HPC)) was 154 % of control.

For `CCc1cc(C)cc(OC(=O)Nc2cccc(Cl)c2)c1`, the T/C [1] was 88 % of control, the T/C [2] was 92 % of control and the T/C [3] was 92 % of control.

For `NS(=O)(=O)Cc1ccccc1`, the T/C (endpoint: mean survival time, dose: 25.0 mg/kg/injection, schedule: Q04DX003 (ip), vehicle: saline) was 107 % of control, the T/C (endpoint: mean survival time, dose: 50.0 mg/kg/injection, schedule: Q04DX003 (ip), vehicle: saline) was 117 % of control and the T/C (endpoint: mean survival time, dose: 100.0 mg/kg/injection, schedule: Q04DX003 (ip), vehicle: saline) was 90 % of control and 92 % of control.

With `Clc1ccc(C(c2ccccc2Cl)C(Cl)Cl)cc1` (configuration not stated) the T/C (endpoint: mean survival time, dose: 62.5 mg/kg/injection, schedule: Q01DX009 (sc), vehicle: steriod suspending solution) was 95 % of control and 106 % of control, the T/C (endpoint: mean survival time, dose: 125.0 mg/kg/injection, schedule: Q01DX009 (sc), vehicle: steriod suspending solution) was 98 % of control and 102 % of control and the T/C (endpoint: mean survival time, dose: 250.0 mg/kg/injection, schedule: Q01DX009 (sc), vehicle: steriod suspending solution) was 95 % of control and 105 % of control. For the same molecule, the T/C (endpoint: mean survival time, dose: 500.0 mg/kg/injection, schedule: Q01DX009 (sc), vehicle: steriod suspending solution) was 101 % of control and 106 % of control.

`C(=N/N=C(\C(=N\N=C\c1ccc2c(c1)CCC2)c1ccccc1)c1ccccc1)\c1ccc2c(c1)CCC2` was tested, and the T/C [1] was 96 % of control, the T/C [2] was 89 % of control and the T/C [3] was 87 % of control.

For `CC1(C)CCC(C#N)=C1N`, the T/C (endpoint: mean survival time, dose: 12.5 mg/kg/injection, schedule: Q04DX003 (ip), vehicle: saline with Tween-80) was 97 % of control, the T/C (endpoint: mean survival time, dose: 25.0 mg/kg/injection, schedule: Q04DX003 (ip), vehicle: saline with Tween-80) was 97 % of control and the T/C (endpoint: mean survival time, dose: 50.0 mg/kg/injection, schedule: Q04DX003 (ip), vehicle: saline with Tween-80) was 91 % of control.

`CCOC(=O)Nc1cc(=O)cc(NC(=O)OCC)[nH]1` was tested, and the T/C (endpoint: mean survival time, dose: 75.0 mg/kg/injection, schedule: Q04DX003 (ip), vehicle: saline) was 98 % of control, the T/C (endpoint: mean survival time, dose: 150.0 mg/kg/injection, schedule: Q04DX003 (ip), vehicle: saline) was 97 % of control and the T/C (endpoint: mean survival time, dose: 300.0 mg/kg/injection, schedule: Q04DX003 (ip), vehicle: saline) was 97 % of control.

`N.N.N.N.O=C([O-])C([O-])C(O)C(=O)[O-].O=[N+]([O-])[O-].[Co+3]` (configuration not stated) was tested, and the T/C (endpoint: mean survival time, dose: 25.0 mg/kg/injection, schedule: Q04DX002 (ip), vehicle: saline with Tween-80) was 104 % of control, the T/C (endpoint: mean survival time, dose: 50.0 mg/kg/injection, schedule: Q04DX002 (ip), vehicle: saline with Tween-80) was 110 % of control and the T/C [4] was 110 % of control.

`CC1(C)C(=O)OC(=O)C(C)(Br)C1(C)C` (configuration not stated) was tested, and the T/C [5] was 104 % of control, the T/C [6] was 96 % of control and the T/C [7] was 101 % of control.

For `CC1(C)CC(=O)C=C(N)C1`, the T/C [8] was 100 % of control, the T/C [9] was 97 % of control and the T/C [10] was 108 % of control.

`NCCc1ccncc1` was tested, and the T/C (endpoint: mean survival time, dose: 100.0 mg/kg/injection, schedule: Q04DX002 (ip), vehicle: saline) was 92 % of control, the T/C (endpoint: mean survival time, dose: 200.0 mg/kg/injection, schedule: Q04DX002 (ip), vehicle: saline) was 92 % of control and the T/C (endpoint: mean survival time, dose: 400.0 mg/kg/injection, schedule: Q04DX002 (ip), vehicle: saline) was 111 % of control.

In the case of `COC(=O)c1ccc(C(=O)CC(=O)c2ccccc2)cc1`, the T/C (endpoint: median survival time, dose: 25.0 mg/kg/injection, schedule: Q04DX003 (ip), vehicle: saline with Tween-80) is reported as 100 % of control, the T/C (endpoint: median survival time, dose: 50.0 mg/kg/injection, schedule: Q04DX003 (ip), vehicle: saline with Tween-80) is reported as 88 % of control and the T/C (endpoint: median survival time, dose: 100.0 mg/kg/injection, schedule: Q04DX003 (ip), vehicle: saline with Tween-80) is reported as 88 % of control. The T/C (endpoint: median survival time, dose: 200.0 mg/kg/injection, schedule: Q04DX003 (ip), vehicle: saline with Tween-80) was 88 % of control.

With `C1CC[N-]CC1.C1CC[N-]CC1.C1CC[N-]CC1.C1CC[N-]CC1.N#C[S-].N#C[S-].[Ni]` the T/C (endpoint: mean survival time, dose: 10.0 mg/kg/injection, schedule: Q04DX003 (ip), vehicle: Klucel (hydroxypropylcellulose) (HPC)) was 90 % of control, the T/C (endpoint: mean survival time, dose: 20.0 mg/kg/injection, schedule: Q04DX003 (ip), vehicle: Klucel (hydroxypropylcellulose) (HPC)) was 91 % of control and the T/C (endpoint: mean survival time, dose: 40.0 mg/kg/injection, schedule: Q04DX003 (ip), vehicle: Klucel (hydroxypropylcellulose) (HPC)) was 96 % of control.

`CC1(c2ccccc2)OCCO1` was tested, and the T/C [5] was 97 % of control, the T/C [8] was 95 % of control and the T/C [1] was 100 % of control. The T/C [6] was 94 % of control, the T/C [9] was 93 % of control and the T/C [2] was 100 % of control. For the same molecule, the T/C [7] was 97 % of control, the T/C [10] was 97 % of control and the T/C [3] was 97 % of control.

With `O=C(Cc1ccccc1)c1ccc(O)cc1` the T/C [1] was 100 % of control, the T/C [2] was 103 % of control and the T/C [3] was 111 % of control.

`OC(c1ccccc1)c1ccccc1` was tested, and the T/C [11] was 91 % of control, the T/C [12] was 91 % of control and the T/C [13] was 91 % of control.

For `Cn1/c2cc/c1=C(\c1ccc(S(=O)(=O)O)cc1)c1ccc([n-]1)/C(c1ccc(S(=O)(=O)O)cc1)=c1/cc/c([nH]1)=C(\c1ccc(S(=O)(=O)O)cc1)c1ccc([n-]1)/C=2c1ccc(S(=O)(=O)O)cc1.O.O=S(=O)(O)C(F)(F)F.[Cu+2]`, the T/C (endpoint: median survival time, dose: 6.25 mg/kg/injection, schedule: Q01DX009 (ip), vehicle: saline) was 101 % of control, the T/C (endpoint: median survival time, dose: 12.5 mg/kg/injection, schedule: Q01DX009 (ip), vehicle: saline) was 104 % of control and the T/C (endpoint: median survival time, dose: 25.0 mg/kg/injection, schedule: Q01DX009 (ip), vehicle: saline) was 103 % of control. For the same molecule, the T/C (endpoint: median survival time, dose: 50.0 mg/kg/injection, schedule: Q01DX009 (ip), vehicle: saline) was 112 % of control and the T/C (endpoint: median survival time, dose: 100.0 mg/kg/injection, schedule: Q01DX009 (ip), vehicle: saline) was 103 % of control.

For `CCCCCCC(C)Oc1ccccc1Cl` (configuration not stated), the T/C [4] was 107 % of control, the T/C (endpoint: mean survival time, dose: 200.0 mg/kg/injection, schedule: Q04DX002 (ip), vehicle: saline with Tween-80) was 86 % of control and the T/C (endpoint: mean survival time, dose: 400.0 mg/kg/injection, schedule: Q04DX002 (ip), vehicle: saline with Tween-80) was 96 % of control.

In the case of `CC(O)(c1ccccc1)C(CCl)N1CCCCC1` (configuration not stated), the T/C [14] is reported as 95 % of control, the T/C [8] is reported as 97 % of control and the T/C [9] is reported as 91 % of control.

`O=C(CCl)Nc1ccccn1` was tested, and the T/C [11] was 96 % of control, the T/C [12] was 102 % of control and the T/C [13] was 97 % of control.

`CCOC(=O)C(CC)(C(=O)OCC)c1c(Cl)c(=O)oc2ccc(Cl)cc12` was tested, and the T/C [5] was 100 % of control, the T/C [6] was 97 % of control and the T/C [7] was 91 % of control.

With `O=C1NCCN1c1ncc([N+](=O)[O-])s1` the T/C (endpoint: mean survival time, dose: 25.0 mg/kg/injection, schedule: Q01DX009 (ip), vehicle: saline with Tween-80) was 101 % of control, the T/C [14] was 97 % of control and the T/C [8] was 97 % of control.

For `N#Cc1c(Cl)cc(C2(OC(=O)c3ccc([N+](=O)[O-])cc3)C3C=CC2CC3)cc1Cl` (configuration not stated), the T/C (endpoint: median survival time, dose: 25.0 mg/kg/injection, schedule: Q04DX002 (ip), vehicle: saline with Tween-80) was 100 % of control, the T/C (endpoint: median survival time, dose: 50.0 mg/kg/injection, schedule: Q04DX002 (ip), vehicle: saline with Tween-80) was 87 % of control and the T/C (endpoint: median survival time, dose: 100.0 mg/kg/injection, schedule: Q04DX002 (ip), vehicle: saline with Tween-80) was 100 % of control. The T/C (endpoint: median survival time, dose: 200.0 mg/kg/injection, schedule: Q04DX002 (ip), vehicle: saline with Tween-80) was 100 % of control.
